Results published in patent publication US7470679B2, “Constrained compounds as CGRP-receptor antagonists” (Bristol-Myers Squibb Company, priority 2006, dated 2008).

target: T1, CGRP receptor (Homo sapiens, UniProt O60894+Q16602); test: CGRP Binding Assay ([125I]-CGRP radioligand displacement, SK-N-MC homogenate); set-up: endogenous in cells; host or cells: SK-N-MC cells (membrane homogenate); conditions: Table 1, displacement of [125I]-CGRP
Protocol: CGRP Binding Assay. Tissue Culture. SK—N-MC cells were grown at 37° C. in 5% CO2 as a monolayer in medium consisting of MEM with Earle's salts and L-glutamine (Gibco) supplemented with 10% fetal bovine serum (Gibco). Cell Pellets. The cells were rinsed twice with phosphate-buffered saline (155 mM NaCl, 3.3 mM Na2HPO4, 1.1 mM KH2PO4, pH 7.4), and incubated for 5-10 min. at 4° C. in hypotonic lysis buffer consisting of 10 mM Tris (pH 7.4) and 5 mM EDTA. The cells were transferred from plates to polypropylene tubes (16×100 mm) and homogenized using a polytron. Homogenates were centrifuged at 32,000×g for 30 min. The pellets were resuspended in cold hypotonic lysis buffer with 0.1% mammalian protease inhibitor cocktail (Sigma) and assayed for protein concentration. The SK—N-MC homogenate was then aliquoted and stored at −80° C. until needed.
Radioligand Binding Assay. The compounds of invention were solubilized and carried through serial dilutions using 100% DMSO. Aliquots from the compound serial dilutions were further diluted 25 fold into assay buffer (50 mM Tris-Cl pH 7.5, 5 mM MgCl2, 0.005% Triton X-100) and transferred (volume 50 μl) into 96 well assay plates. [^125I]-CGRP (Amersham Biosciences) was diluted to 60 pM in assay buffer and a volume of 50 μl was added to each well. SK—N-MC pellets were thawed, diluted in assay buffer with fresh 0.1% mammalian protease inhibitor cocktail (Sigma), and homogenized again. SK—N-MC homogenate (5 μg/well) was added in a volume of 100 μl. The assay plates were then incubated at room temperature for 2 h. Assays were stopped by addition of excess cold wash buffer (20 mM Tris-Cl pH 7.5, 0.1% BSA) immediately followed by filtration over glass fiber filters (Whatman GF/B) previously soaked in 0.5% PEI. Non-specific binding was defined with 1 μM beta-CGRP. Protein bound radioactivity was determined using a gamma or scintillation counter. The IC50 was defined as the concentration of a compound of invention required to displace 50% of radioligand binding.

T1 sequence (Q16602 23-461): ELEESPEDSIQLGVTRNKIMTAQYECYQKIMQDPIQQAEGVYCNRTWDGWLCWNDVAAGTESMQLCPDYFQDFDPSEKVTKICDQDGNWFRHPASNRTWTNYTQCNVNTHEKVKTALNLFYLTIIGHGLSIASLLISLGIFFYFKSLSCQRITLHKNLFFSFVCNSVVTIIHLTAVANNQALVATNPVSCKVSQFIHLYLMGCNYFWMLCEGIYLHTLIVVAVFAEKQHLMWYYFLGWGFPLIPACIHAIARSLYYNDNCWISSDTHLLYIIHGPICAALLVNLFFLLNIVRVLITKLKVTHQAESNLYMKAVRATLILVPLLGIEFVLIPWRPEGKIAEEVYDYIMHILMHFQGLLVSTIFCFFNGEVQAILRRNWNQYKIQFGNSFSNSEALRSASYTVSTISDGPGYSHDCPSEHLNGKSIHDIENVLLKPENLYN
T1 sequence (O60894 27-148): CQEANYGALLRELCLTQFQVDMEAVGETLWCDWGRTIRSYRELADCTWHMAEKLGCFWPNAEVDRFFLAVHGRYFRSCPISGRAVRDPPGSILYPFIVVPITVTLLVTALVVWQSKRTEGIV

| IC50 | Compound |
| --- | --- |
| 0.1 to 10 nM | O=C(C[C@@H]1Cc2cc(Br)c3[nH]nc(Br)c3c2CN(CC(F)(F)F)C1=O)N1CCC(c2cc3ccccc3[nH]c2=O)CC1 |
| 0.1 to 10 nM | O=C(C[C@@H]1Cc2cc(Br)c3[nH]nc(Br)c3c2CN(CC(F)(F)F)C1=O)N1CCC(c2cc3cccc(F)c3[nH]c2=O)CC1 |
| 0.1 to 10 nM | O=C1OCc2c(cc(Br)c3[nH]ncc23)C[C@H]1CC(=O)N1CCC(c2cc3ccccc3[nH]c2=O)CC1 |

same assay, conditions: Table 2, displacement of [125I]-CGRP

| Compound | IC50 |
| --- | --- |
| O=C1Nc2ccccc2C2(CCN(C(=O)NC3Cc4ccc5[nH]ncc5c4CN(CCc4ccncc4)C3=O)CC2)N1 (centres unmarked) | 100 to 1000 nM |
| O=C1Nc2ccccc2CC1C1CCN(C(=O)C[C@@H]2Cc3ccc4[nH]ncc4c3CN(Cc3ccccc3)C2=O)CC1 (some centres unmarked) | 100 to 1000 nM |
| O=C1Nc2ccccc2CC1N1CCN(C(=O)C[C@@H]2Cc3ccc4[nH]ncc4c3CN(Cc3ccccc3)C2=O)CC1 (some centres unmarked) | 100 to 1000 nM |
| CC(C)(C)CN1Cc2c(ccc3[nH]ncc23)C[C@@H](NC(=O)N2CCC3(CC2)CNC(=O)c2ccccc23)C1=O | > 1000 nM |
| CC(C)(C)CN1Cc2c(ccc3[nH]ncc23)C[C@@H](CC(=O)N2CCC(N3Cc4ccccc4CC3=O)CC2)C1=O | 100 to 1000 nM |

Next, values leading:

| IC50 | Compound |
| --- | --- |
| 10 to 100 nM | O=C(N[C@@H]1Cc2ccc3[nH]ncc3c2CN(CCN2CCOCC2)C1=O)N1CCC(N2Cc3ccccc3NC2=O)CC1 |
| 100 to 1000 nM | O=C1NCCC2(CCN(C(=O)N[C@@H]3Cc4ccc5[nH]ncc5c4CN(Cc4ccc(C(F)(F)F)cc4)C3=O)CC2)N1 |
| 10 to 100 nM | CC(C)(C)CN1Cc2c(ccc3[nH]ncc23)C[C@@H](CC(=O)N2CCC(N3Cc4ccccc4NC3=O)CC2)C1=O |
| 0.1 to 10 nM | O=C(NC1Cc2ccc3[nH]ncc3c2CN(CCc2ccncc2)C1=O)N1CCC(N2Cc3ccccc3NC2=O)CC1 (centres unmarked) |
| 10 to 100 nM | O=C(C[C@@H]1Cc2cc(Cl)c3[nH]ncc3c2CN(Cc2cccnc2)C1=O)N1CCC(c2cc(-c3ccccc3)[nH]n2)CC1 |
| 10 to 100 nM | CC(C)(C)CN1Cc2c(ccc3[nH]ncc23)C[C@@H](CC(=O)N2CCC(n3cc(-c4ccccc4)[nH]c3=O)CC2)C1=O |
| 10 to 100 nM | CC(C)(C)CN1Cc2c(cc(Cl)c3[nH]ncc23)C[C@@H](CC(=O)N2CCC(N3C(=O)CN(c4ccccc4)C3=O)CC2)C1=O |
| 10 to 100 nM | CC(C)(C)CN1Cc2c(cc(Cl)c3[nH]ncc23)C[C@@H](CC(=O)N2CCC(c3cc4ccccc4c[n+]3[O-])CC2)C1=O |
| 0.1 to 10 nM | CC(C)(C)CN1Cc2c(cc(Cl)c3[nH]ncc23)C[C@@H](CC(=O)Nc2ccc3c(c2)CCC2(C3)NC(=O)NC2=O)C1=O (some centres unmarked) |
| 10 to 100 nM | CC(C)(C)CN1Cc2c(cc(Cl)c3[nH]ncc23)C[C@@H](CC(=O)Nc2ccc3c(c2)CC2(C3)NC(=O)NC2=O)C1=O (some centres unmarked) |
| 0.1 to 10 nM | O=C(C[C@@H]1Cc2cc(Br)c3[nH]ncc3c2CN(CC2CC2)C1=O)N1CCC(c2cc3ccccc3[nH]c2=O)CC1 |
| 10 to 100 nM | COCCN1Cc2c(cc(Br)c3[nH]ncc23)C[C@@H](CC(=O)N2CCC(c3cc4cccc(F)c4[nH]c3=O)CC2)C1=O |

target: T1, CGRP receptor; test: Cyclic AMP Functional Antagonism Assay; format: cell-based; set-up: cells that endogenously express the human CGRP receptor; endogenous in cells; host or cells: SK-N-MC cells; conditions: Table 2; SK-N-MC cells, 0.3 nM CGRP, 30 min; read-out: cAMP Function IC50
Protocol: Cyclic AMP Functional Antagonism Assay. Antagonism of the compounds of invention was determined by measuring the formation of cyclic AMP (adenosine 3′5′-cyclic monophosphate) in SK—N-MC cells that endogenously express the human CGRP receptor. CGRP receptor complex is coupled with Gs protein and CGRP binding to this complex leads to the cyclic AMP production via Gs-dependent activation of an adenylate cyclase (Juaneda C et al., TiPS, 2000; 21:432-438; incorporated by reference herein). Consequently, CGRP receptor antagonists inhibit CGRP-induced cyclic AMP formation in SK—N-MC cells (Doods H et al., Br J Pharmacol, 2000; 129(3):420-423); incorporated by reference herein). For cyclic AMP measurements SK—N-MC cells were incubated with 0.3 nM CGRP alone or in the presence of various concentrations of the compounds of invention for 30 min at room temperature. Compounds of invention were pre-incubated with SK—N-MC cells for 15 min before the addition of CGRP to allow receptor occupancy (Edvinsson et al., Eur J Pharmacol, 2001, 415:39-44; incorporated by reference herein). Cyclic AMP was extracted using the lysis reagent and its concentration was determined by radioimmunoassay using RPA559 cAMP SPA Direct Screening Assay Kit (Amersham Pharmacia Biotech). IC50 values were calculated using Excel fit.

| IC50 | Compound |
| --- | --- |
| 0.1 to 10 nM | CC(C)(C)CN1Cc2c(ccc3[nH]ncc23)C[C@@H](CC(=O)N2CCC(N3Cc4ccccc4NC3=O)CC2)C1=O |
| 0.1 to 10 nM | O=C(NC1Cc2ccc3[nH]ncc3c2CN(CCc2ccncc2)C1=O)N1CCC(N2Cc3ccccc3NC2=O)CC1 (centres unmarked) |
| 10 to 100 nM | CC(C)(C)CN1Cc2c(ccc3[nH]ncc23)C[C@@H](CC(=O)N2CCC(n3cc(-c4ccccc4)[nH]c3=O)CC2)C1=O |
